Reference: patent US7595313B2, “Nitric oxide donating diuretic compounds, compositions and methods of use” (NicOx, S.A., priority 2005, dated 2009)

Legend:
Male Wistar rats = assay: Determination of the diuresis (urine volume over 6 hours after oral dosing); format: in vivo, rat; details: for Urine collected in 6 hours (mL) (3 mg/kg): p.o. 3 mg/kg in 0.5% Methocel
Description: Procedures were approved by the Institutional Animal Care and Use Committee of NitroMed, Inc. Male Wistar rats (180-200 g) were purchased from Charles River Laboratories (Kingston, N.Y. or Raleigh, N.C.) and allowed to acclimate in the facility for a period of at least 72 h. Rats were randomly housed 2-3 per cage in a light-controlled room with a 12 hour light/dark cycle and allowed ad libitum access to food and water.
Prior to the experiment, each rat was placed in a metabolic cage and allowed to acclimate for a period of 24-48 hours with food and water ad libitum. During this acclimation period, rats received mash food instead of pellet food to prevent contamination of the urine samples. All rats were fasted for 18 hours prior to experimentation. In addition, water was removed 90 minutes prior to oral dosing with test compound or vehicle.
The test compounds were prepared immediately prior to dosing in 0.5% Methocel (F4M Premium Hydroxypropyl Methylcellulose, lot # PF12012N12; Dow Chemical Company, USA) and homogenized with a glass/Teflon pestle motorized homogenizer. Gently vortexed test compounds were administered intragastrically (p.o.; 30 mg/kg or 3 mg/kg) at a dose volume of 3 ml per rat using an 18 gauge gavage needle. Urine volume (ml) was monitored and urine was collected for subsequent electrolyte analysis over a 6 hours period. […] Data are expressed as mean ±SEM; n=6 or 7.

[1] = male Wistar rats, 6 hours, mean ± SEM, n=6 or 7
[2] = p.o. 30 mg/kg in 0.5% Methocel, male Wistar rats, 6 hours, mean ± SEM, n=6 or 7

Structure (SMILES) | Urine collected in 6 hours (mL) (30 mg/kg) (Male Wistar rats; rat, in vivo, po) | melting point | Urine collected in 6 hours (mL) (3 mg/kg) (Male Wistar rats; [1]) | Urine collected in 6 hours (mL) (30 mg/kg) (Male Wistar rats; [2])
NS(=O)(=O)c1cc2c(cc1Cl)NC(CCCC(=O)NC[C@@H](CO[N+](=O)[O-])O[N+](=O)[O-])=NS2(=O)=O [Example 21b, 4H-1,2,4-Benzothiadiazine-3-butanamide, 7-(aminosulfonyl)-N-[(2S)-2,3-bis(nitrooxy)propyl]-6-chloro-, 1,1-dioxide] | 2.7 ± 0.3 | 140 °C (dec.) | – | –
CC(CO[N+](=O)[O-])(CO[N+](=O)[O-])C(=O)N1CCC2(CC1)Nc1cc(Cl)c(S(N)(=O)=O)cc1S(=O)(=O)N2 [Example 23, Spiro[2H-1,2,4-benzothiadiazine-3(4H), 4′-piperidine]-7-sulfonamide, 6-chloro-1′-[2-methyl-3-(nitrooxy)-2-[(nitrooxy)methyl]-1-oxopropyl]-, 1,1-dioxide] | 1.7 ± 0.6 | 142 to 145 °C | – | –
NS(=O)(=O)c1cc2c(cc1Cl)NC(CCCCCO)NS2(=O)=O (stereo not drawn) [Example 24c, 2H-1,2,4-Benzothiadiazine-7-sulfonamide, 6-chloro-3,4-dihydro-3-(5-hydroxypentyl)-, 1,1-dioxide] | – | 190 °C | 8.6 ± 0.4 | 7.2 ± 0.7
NS(=O)(=O)c1cc2c(cc1Cl)NC(CCCCO)NS2(=O)=O (stereo not drawn) [Example 26, 2H-1,2,4-Benzothiadiazine-7-sulfonamide, 6-chloro-3,4-dihydro-3-(4-hydroxybutyl)-, 1,1-dioxide] | – | 202 to 211 °C | – | 6.0 ± 0.4
NS(=O)(=O)c1cc2c(cc1Cl)NCN(CCO)S2(=O)=O [Example 32b, 2H-1,2,4-Benzothiadiazine-7-sulfonamide, 6-chloro-3,4-dihydro-2-(2-hydroxyethyl)-, 1,1-dioxide] | – | 226 to 228 °C | 5.1 ± 0.2 | –
NS(=O)(=O)c1cc2c(cc1Cl)NCN(Cc1cccc(CO[N+](=O)[O-])c1)S2(=O)=O [Example 33, 2H-1,2,4-Benzothiadiazine-7-sulfonamide, 6-chloro-3,4-dihydro-2-[[3-[(nitrooxy)methyl]phenyl]methyl]-, 1,1-dioxide] | – | 136 to 139 °C (dec.) | 3.0 ± 0.4 | –
NS(=O)(=O)c1cc2c(cc1Cl)NCN(CC(=O)NCCCO[N+](=O)[O-])S2(=O)=O [Example 34, 2H-1,2,4-Benzothiadiazine-2-acetamide, 7-(aminosulfonyl)-6-chloro-3,4-dihydro-N-[3-(nitrooxy)propyl]-, 1,1-dioxide] | – | 138 to 141 °C | 2.8 ± 0.3 | –
Cc1c(CN2CNc3cc(Cl)c(S(N)(=O)=O)cc3S2(=O)=O)no[n+]1[O-] [Example 37c, 2H-1,2,4-Benzothiadiazine-7-sulfonamide, 6-chloro-3,4-dihydro-2-[(4-methyl-5-oxido-1,2,5-oxadiazol-3-yl)methyl]-, 1,1-dioxide] | – | 235 to 237 °C | 2.1 ± 0.6 | –
CN(CCO[N+](=O)[O-])C(=O)CN1CNc2cc(Cl)c(S(N)(=O)=O)cc2S1(=O)=O [Example 38, 2H-1,2,4-Benzothiadiazine-2-acetamide, 7-(aminosulfonyl)-6-chloro-3,4-dihydro-N-methyl-N-[2-(nitrooxy)ethyl]-, 1,1-dioxide] | – | 160 to 165 °C | 4.5 ± 0.6 | –
NS(=O)(=O)c1cc2c(cc1Cl)NCN(CCCCO)S2(=O)=O [Example 41, 2H-1,2,4-Benzothiadiazine-7-sulfonamide, 6-chloro-3,4-dihydro-2-(4-hydroxybutyl)-, 1,1-dioxide] | – | 96 to 99 °C | 5.5 ± 0.6 | –
